Experimental data from patent publication US20250090565A1, “Compositions and Methods for Treating Bleeding and Bleeding Disorders” (YewSavin, Inc., priority 2021, published 2025).
Entries after “also recorded” stand apart in the source; their conditions may differ. One block for each compound: values may come before it.

Key:
FVIII-deficient plasma = test: Thrombin generation assay (TGA) in FVIII-deficient plasma; assay type: biochemical, human; conditions: for thrombin generation ETP dependence on concentration: 0.01 mg/ml, 0.1 mg/ml, and 0.4 mg/ml in FVIII-deficient plasma
From the text: Thrombin generation is regarded as a significant indicator of the efficiency of blood clotting. Therefore, the thrombin generation assay (“TGA”) can be used as a proxy to estimate overall blood clotting efficiency of factor proteins and others agents from observing the clotting of plasma samples. The thrombin generation experiments were run using a microtiter plate fluorometer. Solvent systems consisting of a buffer, a fluorogenic substrate, and eight candidate compounds in inert solvents were added to pre-warmed citrated FVIII-deficient plasma along with tissue factor. The clotting reactions in the plasma-compound mixtures were initiated by adding calcium chloride solution to all the samples, and the fluorescence measurements recorded by the fluorimeter were compared against negative control (FVIII-deficient plasma without compounds or solvent system), vehicle control (FVIII-deficient plasma with solvent system only), and positive control (FVIII-deficient plasma mixed with regular plasma) reference measurements.
Each of the eight candidate compounds was tested via the TGA at three different concentrations.

[1] = tested on: ex vivo Hemophilia A human blood; test: Ca+2ACT whole blood coagulation time test, Hemophilia A human blood; assay type: biochemical; conditions: for mean clotting time: Hemophilia A blood specimens
From the text: (§1) While there are standardized tests such as Activated Partial Thromboplastin Time (“aPTT”) and Partial Thromboplastin Time (“PPT”) that measure blood clotting times (i.e., coagulation times), none of these tests are amenable to testing a small molecule drug, mainly due to the fact that the clotting agents added in these tests completely overcome the effect of the drug. A Calcium +2 ion Activated Coagulation Time test (“Ca+2ACT test”) was developed for measuring coagulation times that is devoid of the activators, thereby allowing drug candidates to be tested and verify their effects. The results described below use whole blood clotting assay and measure the coagulation of blood (i.e., blood's ability to clot), specifically, how much time is required for the clotting.
In this study, calcium chloride (“CaCl2”), a standard coagulating compound, is used as a control to compare the efficacy of various test samples. DMA is used as vehicle for various test samples. In a first study, a freshly prepared 5 μl test sample in DMA is added to a 100 μl blood specimen and then incubated in incubation slot of KC1 Delta machine Correlated Stago-Startmax for 37° C. for 3 min. For the control sample, 50 μl of CaCl2 solution is added, and timer started, to a 100 μl blood specimen to provide a baseline against the test sample. A stop watch, and automated electronic machine display, is used to measure the coagulation time in connection with an electronic signal provided the testing machine. Fresh citrated blood specimen from six healthy volunteers and six hemophilia patients, with initial standard citrate concentration in the collected blood of 3.5%, and “in cuvette” calcium +2 activation (by addition of CaCl2 solution) was obtained.
In this study, the effect of drug is measured by coagulation time of blood using the Ca+2ACT test, in presence of variable concentration of the drug in the test sample. The efficacy tests used 5 microliter of 40 mg/mL solution added to 155 microliter final volume in the clotting cuvette, corresponding to […] of the clotting mixture. For the dose dependence studies, we examined three persons. The twelve concentrations range chosen is 5 microliter of 0.05 mg/mL to 40 mg/mL, the vehicle being zero point concentration. This corresponds to mimimum concentration in the study of 1.66 microgram/mL or 1.66 ppm of the drug, not withstanding Vehicle Control of zero. […] FIG. 45 illustrates coagulation time versus concentration for the candidate molecule 1 for blood specimens from a second patient. FIG. 46 illustrates coagulation time versus concentration for the candidate molecule 1 for blood specimens from a third patient.
As discussed above, the effect is measured by coagulation time of blood using the Ca+2ACT test, in presence of variable concentration of the drug. Initial efficacy tests used 5 microliters of 40 mg/mL solution added to 155 microliter final volume in the clotting cuvette, corresponding to 1.29 mg/1000 mg of the clotting mixture. More recent tests used 10E-2 to 10E-22 as concentration range with 1E-2 interval. Samples were tested no later than eight hours after collection, and preferably, no later than four hours after collection. Often times, with very low and zero concentrations of clotting agents, although the instrument recorded a clotting time, the samples were fluid and partially coagulated at best. However, good fit was obtained at 1E-18 and good statistical difference was obtained at 1E-16, with significant statistical p-values at 10E-8 and higher concentrations, a very good range for drug design. […] The dose dependence study was performed using NDA solvent, and water in case of Eloctate™.

heparinized rabbit blood = test: Heparinized clotting test (in vitro); assay type: biochemical
Description: The purpose of this experiment was to deduce a potential mechanism of action for chalcones in decreasing blood clotting and bleeding time. First, rabbit blood (200 μL) was added to the anticoagulant drug heparin (1.25 IU) in Eppendorf Tubes®. […] In untreated blood that is still inside a human or an animal, heparan sulfate that is found on cellular surfaces plays an equivalent role to heparin by forming a heparan-antithrombin complex and activating antithrombin.

[2] = tested on: Factor VIII Deficient Mice; test: Tail bleeding assay in FVIII-KO mice; assay type: in vivo
Description: (§2) The purpose of this experiment was to evaluate the effectiveness of chalcones on tail bleeding time in mice. […] A distal 10 mm segment of each mouse's tail was amputated with a scalpel and the remaining tail stump was immediately immersed in a 50 mL Falcon tube containing isotonic saline pre-warmed in a water bath to 37° C. Each mouse was allowed to bleed freely for 20 minutes even if bleeding ceased, in order to detect any re-bleeding. Bleeding time was determined using a stopwatch. At the end of the 20 minutes, the experiment was terminated to avoid lethality. All animals were then bled additionally to obtain a sufficient amount of blood for determining fibrinogen content. Organs were collected, weighed and preserved for future assays.

[3] = tested on: Factor VIII Deficient Mice; test: Capillary clotting time in Factor VIII deficient mice; assay type: in vivo; conditions: FVIII deficient mice; HF-2021a oral once daily for seven days; FVIII intravenous
Wistar rats = test: Ex vivo capillary clotting assay in Wistar rats; conditions: ex vivo oral, compared with chromatography fractions (FIG. 3)
From the text: During the bioassay-guided fractionation process, blood clotting time was used as a screen for active compounds, and a particular class of compounds known as chalcones was discovered to induce blood coagulation. FIG. 3 illustrates a sample result from an ex vivo capillary clotting assay in Wistar rats in accordance with various embodiments of the invention as described in further detail below.

[4] = tested on: ex vivo healthy human blood; test: Ca+2ACT whole blood coagulation time test, healthy human blood; assay type: biochemical; conditions: 1 mg/ml, healthy blood specimens; vehicle control 208.87 seconds
From the text: as §1
In this study, calcium chloride (“CaCl2”), a standard coagulating compound, is used as a control to compare the efficacy of various test samples. DMA is used as vehicle for various test samples. In a first study, a freshly prepared 5 μl test sample in DMA is added to a 100 μl blood specimen and then incubated in incubation slot of KC1 Delta machine Correlated Stago-Startmax for 37° C. for 3 min. For the control sample, 50 μl of CaCl2 solution is added, and timer started, to a 100 μl blood specimen to provide a baseline against the test sample. […]

[5] = tested on: Factor VIII Deficient Mice; test: Fibrin (fibrinogen) content of blood of Factor VIII deficient mice; assay type: in vivo; conditions: FVIII deficient mice, blood taken at end of experiment
Description: as §2

normal plasma = test: Thrombin generation assay (TGA) in normal plasma; assay type: biochemical, human
[6] = Bodyweight of Factor VIII deficient mice; assay type: in vivo; conditions: FVIII deficient mice, mean (spread)

Compound: O=C(/C=C/c1ccc(O)cc1)c1ccc(O)cc1O [HF-2021c, (E)-1-(2,4-dihydroxyphenyl)-3-(4-hydroxyphenyl)prop-2-en-1-one]
- thrombin generation ETP dependence on concentration (FVIII-deficient plasma): observed dose dependence

Compound: COc1ccc(C=CC(=O)c2c(O)cc(O)cc2O)cc1 [ISK-CH, Iso-Sakutanetin Chalcone]
- mean clotting time ([1]; 1×10^−7 mg/mL, vehicle control 200.87 seconds): 116.4 s

Compound: O=C(/C=C/c1ccc(O)cc1)c1c(O)cc(O)cc1O [HF-2021g, (E)-3-(4-hydroxyphenyl)-1-(2,4,6-trihydroxyphenyl)prop-2-en-1-one]
- thrombin generation ETP dependence on concentration (FVIII-deficient plasma): observed dose dependence

- EC50 compared with Eloctate ([1]; concentration for 50% of the total effect on coagulation time (FIG. 43)): lower than for Eloctate™
Compound: CC(C)=CCOc1ccc(/C=C/C(=O)c2ccc(OCC=C(C)C)cc2OCC(=O)O)cc1 [HF-2021e, 2-[5-(3-methylbut-2-enoxy)-2-[(E)-3-[4-(3-methylbut-2-enoxy)phenyl]prop-2-enoyl]phenoxy]acetic acid]
- thrombin generation ETP dependence on concentration (FVIII-deficient plasma): observed dose dependence
- thrombin concentration and ETP, combined dosing with HEMLIBRA (FVIII-deficient plasma; 0.1 mg/mL combined with 25, 50, 75 μg/ml HEMLIBRA, versus each drug alone (FIG. 32, 33)): greater thrombin concentrations and ETPs than any individual dosage
- thrombin concentration and ETP, combined dosing with HEMLIBRA (FVIII-deficient plasma; 0.1 mg/ml + 25 μg/ml HEMLIBRA versus 75 μg/ml HEMLIBRA alone): slightly more thrombin concentration and ETP
- possible cut of the required dose of HEMLIBRA on concurrent use (FVIII-deficient plasma; 0.1 mg/ml + 25 μg/ml HEMLIBRA, roughly same thrombin generation as 75 μg/ml): 67%
- effect on thrombin concentration and ETP compared with HEMLIBRA (FVIII-deficient plasma; 0.4 mg/ml versus lowest tested HEMLIBRA concentration 25 μg/ml (FIG. 30, 31)): slightly lower effect
- mean clotting time ([1]; 0.1 mg/mL, vehicle control 247.61 seconds): 118.92 s
- coagulation times compared with Eloctate ([1]; HF2021e in NDA, Eloctate in water (FIG. 43)): higher than the coagulation times for Eloctate™
- coagulation time dependence on dose ([1]; dose dependence study in NDA solvent (FIG. 43)): linear coagulation time dependence

Compound: COc1ccc(/C=C/C(=O)c2c(O)cc(O[C@@H]3O[C@H](CO[C@@H]4O[C@@H](C)[C@H](O)[C@@H](O)[C@H]4O)[C@@H](O)[C@H](O)[C@H]3O)cc2OC)cc1O [HF-2021d, (E)-3-(3-hydroxy-4-methoxyphenyl)-1-[2-hydroxy-6-methoxy-4-[(2S,3R,4S,5S,6R)-3,4,5-trihydroxy-6-[[(2R,3R,4R,5R,6S) -3,4,5-trihydroxy-6-methyloxan-2-yl]oxymethyl]oxan-2-yl]oxyphenyl]prop-2-en-1-one]
- thrombin generation ETP dependence on concentration (FVIII-deficient plasma): observed dose dependence

Compound: O=C(C=Cc1ccc2c(c1)OCO2)c1ccccc1 [HF-2022a, 3-(1,3-Benzodioxol-5-yl)-1-phenyl-2-propen-1-one]
- thrombin generation ETP dependence on concentration (FVIII-deficient plasma): observed dose dependence

Compound: COc1ccc(C=CC(=O)c2c(O)cc(OC)cc2OC)cc1 [HF-2021b, 1-(2-hydroxy-4,6-dimethoxyphenyl)-3-(4-methoxyphenyl)prop-2-en-1-one]
- thrombin generation ETP dependence on concentration (FVIII-deficient plasma): observed dose dependence
- activity in the heparinized blood assay (heparinized rabbit blood; heparinized blood): active blood clotting agent

Compound: COc1cc(O)c(C(=O)C=Cc2ccc(O)cc2)c(OC)c1OC [HF-2021a, 1-(6-Hydroxy-2,3,4-trimethoxyphenyl)-3-(4-hydroxy-phenyl)prop-2-en-1-one]
- thrombin generation ETP dependence on concentration (FVIII-deficient plasma): observed dose dependence
- effect on thrombin concentration and ETP compared with HEMLIBRA (FVIII-deficient plasma; 0.1 mg/ml versus any of the concentrations of HEMLIBRA (FIG. 28, 29)): comparable effects
- thrombin response compared with FVIII-deficient plasma containing 10% of normal FVIII (FVIII-deficient plasma; 0.4 mg/ml (FIG. 18, 19)): superior to that of 10% of normal FVIII activity
- effect on thrombin concentration and ETP compared with HEMLIBRA (FVIII-deficient plasma; 0.4 mg/ml versus highest tested HEMLIBRA concentration 75 μg/ml (FIG. 28, 29)): slightly larger effect
- thrombin concentration and ETP, combined with ELOCTATE (FVIII-deficient plasma; all tested concentrations, plasma of a patient who had taken ELOCTATE (FIG. 34, 35)): greater thrombin concentrations and ETPs than ELOCTATE® by itself
- blood clotting time versus concentration (heparinized rabbit blood; rabbit blood 200 μL + heparin 1.25 IU, varying concentrations in DMSO (FIG. 7)): dose dependence relationship was observed
- mean clotting time ([1]; 1 mg/mL, vehicle control 228.92 seconds): 64.92 s
- coagulation time versus concentration ([1]; blood specimens of three patients, twelve concentrations (FIG. 44-46)): clear dependency
- Optical Density ([2]; FVIII deficient mice, tail bleeding experiment): 0.5 (0.1)
- tail bleeding time (in words) ([2]; FVIII-KO mice, repeated oral administrations, versus standard FVIII therapy (FIG. 4)): outperforming the standard FVIII therapy; also recorded: significantly improved
- Survival Rate ([2]; after 48 hours): 3/5 after
- Bleeding Time (Seconds) ([2]; tail amputation 10 mm, saline 37° C., HF-2021a oral once daily for seven days, FVIII intravenous): 41.8 (9.7) Seconds
- Capillary Clotting Time (Seconds) [3]: 44.6 (13.2) Seconds
- effect on capillary clotting time (Wistar rats): nearly identical to that of the chromatography fractions
- mean clotting time [4]: 74.12 s
- Fibrin content (mg/dL) [5]: 281.2 (44.1) mg/dL
- thrombin generation curves versus concentration (normal plasma; normal plasma (FIG. 20)): dose dependent response
- thrombin generation ETP versus concentration (normal plasma; normal plasma (FIG. 21)): dose dependent response is also observed
- Bodyweight (Day 0) ([6]; Day 0 (baseline)): 17.4 (1.4)
- Bodyweight (Day 7) ([6]; Day 7): 18.8 (1.1)

Compound: 4-methoxyphenyl-3-(2,4-dimethoxyphenyl)-1-oxo-2-propene [HF-2021f]
- thrombin generation ETP dependence on concentration (FVIII-deficient plasma): observed dose dependence
